# Literature values as cited in patent US8609652B2, “Method of administering a methylene blue-curcumin analog for the treatment of alzheimer's disease” (DePuy Synthes Products, LLC, priority 2009, dated 2013).
# How the values were obtained:
# beta-amyloid aggregation = details: cited from earlier work
# [1] = iontophoresis of 100 mg for 20 minutes; cited from earlier work
# tau filaments = details: cited from earlier work
# [2] = test system: neuronal mitochondrial complex IV; details: cited from earlier work
# [3] = test system: rate of cognitive decline; details: 19 month period; cited from earlier work
# [4] = 10 mg/ml patch, 0.1 mA/cm^2 current density; cited from earlier work
smiles,measurement,setting,value
NCCc1ccc(O)c(O)c1 [dopamine],potency to inhibit beta-amyloid aggregation relative to curcumin,beta-amyloid aggregation,about 10 times
O=C(OCCOCCO)c1ccccc1Nc1cccc(C(F)(F)F)c1 [etofenamate],serum concentration,[1],about 200 ng/ml
CN(C)c1ccc2nc3ccc(=[N+](C)C)cc-3sc2c1 [methylene blue],formation of tau filaments,tau filaments,inhibits the formation of tau filaments
same,enhancement of cellular oxygen consumption,[2],37-70%
same,increase of neuronal mitochondrial complex IV,[2],30%
same,decrease in the rate of cognitive decline as compared to controls,[3],81%
CC(C)NCC(O)COc1cccc2ccccc12 (stereo not shown) [propranolol],Cmax serum concentration,[4],about 200 ng/ml
